# Reference: the OligoGym collection
# HELM strings list units from the 5' end as sugar, base in round brackets, then linkage (d deoxyribose, r ribose, m 2'-O-methyl, p phosphodiester). Strings are as the collection lists them; they lack the last nucleoside at the 3' end of the tested compound. [moe] = 2'-O-(2-methoxyethyl) (MOE); [sp] = phosphorothioate linkage; [m5C] = 5-methylcytosine
# Molecular target: ATXN3
# Test: mouse, dose not given
# Conditions: ASO
row,Substance,3 h FOB score [score 0-7]
1,RNA1{[moe](A)[sp].[moe]([m5C])p.[moe](T)p.[moe](G)p.[moe]([m5C])[sp].d(A)[sp].d([m5C])[sp].d(A)[sp].d([m5C])[sp].d(T)[sp].d(T)[sp].d(T)[sp].d([m5C])[sp].d([m5C])[sp].d(T)[sp].[moe]([m5C])p.[moe]([m5C])p.[moe](T)[sp].[moe]([m5C])}$$$$ (last 3' nucleoside missing),0
2,RNA1{[moe](T)[sp].[moe](A)p.[moe](A)p.[moe](T)p.[moe](A)p.[moe]([m5C])p.d(T)[sp].d(T)[sp].d(T)[sp].d(T)[sp].d(T)[sp].d([m5C])[sp].d([m5C])[sp].d(A)[sp].d(G)[sp].d([m5C])[sp].[moe]([m5C])p.[moe](T)[sp].[moe](T)}$$$$ (last 3' nucleoside missing),3
3,RNA1{[moe](G)[sp].[moe]([m5C])p.[moe](A)p.[moe]([m5C])p.[moe](A)p.[moe](T)p.d(T)[sp].d(T)[sp].d(T)[sp].d(T)[sp].d(T)[sp].d(A)[sp].d(T)[sp].d(A)[sp].d(G)[sp].d(A)[sp].[moe](G)p.[moe](T)[sp].[moe](T)}$$$$ (last 3' nucleoside missing),1
4,RNA1{[moe](T)[sp].[moe](G)p.[moe]([m5C])p.[moe](T)p.[moe](T)p.d(T)[sp].d(T)[sp].d([m5C])[sp].d(A)[sp].d(T)[sp].d(A)[sp].d([m5C])[sp].d([m5C])[sp].d(A)[sp].d(G)[sp].[moe](G)p.[moe](T)p.[moe]([m5C])[sp].[moe](T)}$$$$ (last 3' nucleoside missing),1.25
5,RNA1{[moe](A)[sp].[moe](T)p.[moe](G)p.[moe](T)p.[moe](T)p.[moe]([m5C])p.d(A)[sp].d(T)[sp].d(A)[sp].d(T)[sp].d([m5C])[sp].d([m5C])[sp].d(T)[sp].d(T)[sp].d(T)[sp].d(A)[sp].[moe](A)p.[moe]([m5C])[sp].[moe]([m5C])}$$$$ (last 3' nucleoside missing),0
6,RNA1{[moe]([m5C])[sp].[moe](A)p.[moe](A)p.[moe](T)p.[moe](A)p.d(T)[sp].d(T)[sp].d(T)[sp].d(A)[sp].d(T)[sp].d(A)[sp].d(G)[sp].d(G)[sp].d(T)[sp].d(G)[sp].[moe]([m5C])p.[moe](T)p.[moe](G)[sp].[moe]([m5C])}$$$$ (last 3' nucleoside missing),4
7,RNA1{[moe](G)[sp].[moe](G)p.[moe](T)p.[moe]([m5C])p.[moe](A)p.[moe](G)p.d(T)[sp].d(T)[sp].d(T)[sp].d([m5C])[sp].d([m5C])[sp].d(T)[sp].d(A)[sp].d(A)[sp].d(T)[sp].d(T)[sp].[moe](T)p.[moe](T)[sp].[moe](A)}$$$$ (last 3' nucleoside missing),1
8,RNA1{[moe](T)[sp].[moe](G)p.[moe](A)[sp].[moe](G)[sp].[moe]([m5C])[sp].d([m5C])[sp].d(A)[sp].d(A)[sp].d(T)[sp].d(A)[sp].d(T)[sp].d(T)[sp].d(T)[sp].d(A)[sp].d(T)[sp].[moe](A)[sp].[moe](G)p.[moe](G)[sp].[moe](T)}$$$$ (last 3' nucleoside missing),4
9,RNA1{[moe](A)[sp].[moe]([m5C])p.[moe]([m5C])p.[moe]([m5C])p.[moe](A)[sp].d(A)[sp].d(T)[sp].d(A)[sp].d(A)[sp].d(T)[sp].d([m5C])[sp].d(T)[sp].d(G)[sp].d(A)[sp].d([m5C])[sp].[moe](A)p.[moe](T)p.[moe]([m5C])[sp].[moe]([m5C])}$$$$ (last 3' nucleoside missing),0
10,RNA1{[moe](A)[sp].[moe](T)p.[moe](G)p.[moe]([m5C])p.[moe](T)[sp].d([m5C])[sp].d(A)[sp].d(T)[sp].d(T)[sp].d(T)[sp].d(A)[sp].d(T)[sp].d(T)[sp].d([m5C])[sp].d(T)[sp].[moe]([m5C])p.[moe](A)p.[moe](A)[sp].[moe](G)}$$$$ (last 3' nucleoside missing),0
11,RNA1{[moe](A)[sp].[moe](T)p.[moe](T)p.[moe]([m5C])p.[moe](T)[sp].d(T)[sp].d(G)[sp].d([m5C])[sp].d(T)[sp].d(T)[sp].d([m5C])[sp].d(A)[sp].d(A)[sp].d([m5C])[sp].d([m5C])[sp].[moe](A)p.[moe](T)p.[moe]([m5C])[sp].[moe](A)}$$$$ (last 3' nucleoside missing),0.375
12,RNA1{[moe]([m5C])[sp].[moe](T)p.[moe](G)p.[moe](T)p.[moe](A)[sp].d([m5C])[sp].d(A)[sp].d([m5C])[sp].d(T)[sp].d(T)[sp].d(T)[sp].d(T)[sp].d(A)[sp].d([m5C])[sp].d(A)[sp].[moe](T)p.[moe](T)p.[moe]([m5C])[sp].[moe]([m5C])}$$$$ (last 3' nucleoside missing),1
13,RNA1{[moe](T)[sp].[moe](G)p.[moe]([m5C])p.[moe](T)p.[moe]([m5C])[sp].d(A)[sp].d(T)[sp].d(T)[sp].d(T)[sp].d(A)[sp].d(T)[sp].d(T)[sp].d([m5C])[sp].d(T)[sp].d([m5C])[sp].[moe](A)p.[moe](A)p.[moe](G)[sp].[moe](T)}$$$$ (last 3' nucleoside missing),0
14,RNA1{[moe](A)[sp].[moe](G)p.[moe](T)p.[moe](G)p.[moe]([m5C])p.[moe](T)p.d(T)[sp].d(T)[sp].d(T)[sp].d([m5C])[sp].d(A)[sp].d(T)[sp].d(A)[sp].d([m5C])[sp].d([m5C])[sp].d(A)[sp].[moe](G)p.[moe](G)[sp].[moe](T)}$$$$ (last 3' nucleoside missing),1
15,RNA1{[moe](G)[sp].[moe]([m5C])p.[moe]([m5C])p.[moe](A)p.[moe](A)[sp].d(T)[sp].d(A)[sp].d(T)[sp].d(T)[sp].d(T)[sp].d(A)[sp].d(T)[sp].d(A)[sp].d(G)[sp].d(G)[sp].[moe](T)p.[moe](G)p.[moe]([m5C])[sp].[moe](T)}$$$$ (last 3' nucleoside missing),3
16,RNA1{[moe](T)[sp].[moe](A)p.[moe](A)p.[moe](T)p.[moe](A)[sp].d([m5C])[sp].d(T)[sp].d(T)[sp].d(U)[sp].d(T)[sp].d(T)[sp].d([m5C])[sp].d([m5C])[sp].d(A)[sp].d(G)[sp].[moe]([m5C])p.[moe]([m5C])p.[moe](T)[sp].[moe](T)}$$$$ (last 3' nucleoside missing),1
17,RNA1{[moe](A)[sp].[moe](A)p.[moe](T)p.[moe](G)p.[moe]([m5C])[sp].d(T)[sp].d([m5C])[sp].d(A)[sp].d(T)[sp].d(T)[sp].d(T)[sp].d(A)[sp].d(T)[sp].d(T)[sp].d([m5C])[sp].[moe](T)p.[moe]([m5C])p.[moe](A)[sp].[moe](A)}$$$$ (last 3' nucleoside missing),2
18,RNA1{[moe](G)[sp].[moe]([m5C])p.[moe]([m5C])p.[moe](A)p.[moe](T)p.d(T)[sp].d(A)[sp].d(A)[sp].d(T)[sp].d([m5C])[sp].d(T)[sp].d(A)[sp].d(T)[sp].d(A)[sp].d([m5C])[sp].[moe](T)p.[moe](G)p.[moe](A)[sp].[moe](A)}$$$$ (last 3' nucleoside missing),1
19,RNA1{[moe](T)[sp].[moe](G)[sp].[moe](T)p.[moe](T)p.[moe](A)[sp].d(A)[sp].d(T)[sp].d(A)[sp].d([m5C])[sp].d(T)[sp].d(T)[sp].d(T)[sp].d(T)[sp].d(T)[sp].d([m5C])[sp].[moe]([m5C])p.[moe](A)p.[moe](G)[sp].[moe]([m5C])}$$$$ (last 3' nucleoside missing),1
20,RNA1{[moe]([m5C])[sp].[moe]([m5C])p.[moe](A)p.[moe](A)p.[moe](T)[sp].d(A)[sp].d(T)[sp].d(T)[sp].d(T)[sp].d(A)[sp].d(T)[sp].d(A)[sp].d(G)[sp].d(G)[sp].d(T)[sp].[moe](G)p.[moe]([m5C])p.[moe](T)[sp].[moe](G)}$$$$ (last 3' nucleoside missing),3.5
21,RNA1{[moe](G)[sp].[moe]([m5C])p.[moe](T)[sp].[moe]([m5C])[sp].[moe](A)[sp].d(T)[sp].d(T)[sp].d(T)[sp].d(A)[sp].d(T)[sp].d(T)[sp].d([m5C])[sp].d(T)[sp].d([m5C])[sp].d(A)[sp].[moe](A)[sp].[moe](G)p.[moe](T)[sp].[moe](A)}$$$$ (last 3' nucleoside missing),2
22,RNA1{[moe]([m5C])[sp].[moe](T)p.[moe](G)p.[moe]([m5C])p.[moe](A)[sp].d([m5C])[sp].d(A)[sp].d([m5C])[sp].d(T)[sp].d(T)[sp].d(T)[sp].d([m5C])[sp].d([m5C])[sp].d(T)[sp].d([m5C])[sp].[moe]([m5C])p.[moe](T)p.[moe]([m5C])[sp].[moe](A)}$$$$ (last 3' nucleoside missing),0
23,RNA1{[moe]([m5C])[sp].[moe](A)p.[moe]([m5C])p.[moe](A)p.[moe]([m5C])[sp].d(T)[sp].d(T)[sp].d(T)[sp].d([m5C])[sp].d([m5C])[sp].d(T)[sp].d([m5C])[sp].d([m5C])[sp].d(T)[sp].d([m5C])[sp].[moe](A)p.[moe](A)p.[moe](T)[sp].[moe]([m5C])}$$$$ (last 3' nucleoside missing),0
